Species on record: Rattus norvegicus
Test: Open TG-GATES - Regimen: Daily Repeat
Format: toxicity, organism-based, Sprague-Dawley
Parameters: regimen Daily Repeat, gender Male, age 6 weeks
Settings: in vivo, po, route gavage; for APTT / Bas / Eos / Fbg / Hb / Ht / Lym / MCH / MCHC / MCV / Mono / Neu / PT / Plat / RBC / Ret / WBC: tissue Blood; for KIDNEY_L / KIDNEY_R / KIDNEY_TOTAL: tissue Kidney; for LIVER: tissue Liver; for A/G / ALP / ALT / AST / BUN / CRE / Ca / Cl / DBIL / GLC / IP / K / LDH / Na / PL / RALB / TBIL / TC / TG / TP / gamma-GTP: tissue Plasma
[1] = 0 mg/kg, 72 h, dose level Control, time 3 day
[2] = 0 mg/kg, […], dose level Control, time 7 day
[3] = 0 mg/kg, […], dose level Control, time 14 day
[4] = 0 mg/kg, […], dose level Control, time 28 day
[5] = 15 mg/kg, 72 h, dose level Low, time 3 day
[6] = 15 mg/kg, […], dose level Low, time 7 day
[7] = 15 mg/kg, […], dose level Low, time 14 day
[8] = 15 mg/kg, […], dose level Low, time 28 day

CC(C)C(=O)Nc1ccc([N+](=O)[O-])c(C(F)(F)F)c1 [FLUTAMIDE]
TERMINAL_BW [1]: 224.3 g
APTT [1]: 19 s
Bas [1]: 0%
Eos [1]: 1%
Fbg [1]: 219.2 mg/dL
Hb [1]: 13.9 g/dL
Ht [1]: 41.8%
Lym [1]: 79%
MCH [1]: 21.5 pg
MCHC [1]: 33.3%
MCV [1]: 64.6 fL
Mono [1]: 3%
Neu [1]: 16%
PT [1]: 12.4 s
Plat [1]: 122.4 x10_4/uL
RBC [1]: 648 x10_4/ul
Ret [1]: 5.4%
WBC [1]: 82.7 x10_2/uL
KIDNEY_L [1]: 1 g
KIDNEY_R [1]: 1 g
KIDNEY_TOTAL [1]: 2 g
LIVER [1]: 10.4 g
A/G [1]: 1.5
ALP [1]: 1016 IU/L
ALT [1]: 41.6 IU/L
AST [1]: 72.8 IU/L
BUN [1]: 13.6 mg/dL
CRE [1]: 0.4 mg/dL
Ca [1]: 10.5 mg/dL
Cl [1]: 103.8 meq/L
DBIL [1]: 0.09 mg/dL
GLC [1]: 220.2 mg/dL
IP [1]: 7.1 mg/dL
K [1]: 4.1 meq/L
LDH [1]: 204.4 IU/L
Na [1]: 139.8 meq/L
PL [1]: 139 mg/dL
RALB [1]: 3.3 g/dL
TBIL [1]: 0.1 mg/dL
TC [1]: 76.2 mg/dL
TG [1]: 71.8 mg/dL
TP [1]: 5.5 g/dL
gamma-GTP [1]: 0.8 IU/L
TERMINAL_BW [2]: 253 g
TERMINAL_BW [3]: 303.3 g
TERMINAL_BW [4]: 371.7 g
APTT [2]: 19.5 s
Bas [2]: 0%
Eos [2]: 1%
Fbg [2]: 230.6 mg/dL
Hb [2]: 13.8 g/dL
Ht [2]: 40.6%
Lym [2]: 81.6%
MCH [2]: 21.1 pg
MCHC [2]: 33.9%
MCV [2]: 62.3 fL
Mono [2]: 2.4%
Neu [2]: 14.6%
PT [2]: 12.2 s
Plat [2]: 133.9 x10_4/uL
RBC [2]: 652.6 x10_4/ul
Ret [2]: 4.9%
WBC [2]: 141.3 x10_2/uL
APTT [3]: 20.7 s
Bas [3]: 0%
Eos [3]: 0.8%
Fbg [3]: 227 mg/dL
Hb [3]: 14.4 g/dL
Ht [3]: 42.3%
Lym [3]: 80.8%
MCH [3]: 20.8 pg
MCHC [3]: 34.1%
MCV [3]: 60.9 fL
Mono [3]: 2.4%
Neu [3]: 15.2%
PT [3]: 12.2 s
Plat [3]: 128 x10_4/uL
RBC [3]: 695 x10_4/ul
Ret [3]: 4.3%
WBC [3]: 110.8 x10_2/uL
APTT [4]: 19.6 s
Bas [4]: 0%
Eos [4]: 0.8%
Fbg [4]: 229.6 mg/dL
Hb [4]: 15.2 g/dL
Ht [4]: 43.5%
Lym [4]: 82.8%
MCH [4]: 19.9 pg
MCHC [4]: 35%
MCV [4]: 56.8 fL
Mono [4]: 2.2%
Neu [4]: 13.6%
PT [4]: 12.2 s
Plat [4]: 107.9 x10_4/uL
RBC [4]: 765.6 x10_4/ul
Ret [4]: 2.3%
WBC [4]: 122 x10_2/uL
KIDNEY_L [2]: 1.1 g
KIDNEY_R [2]: 1.1 g
KIDNEY_TOTAL [2]: 2.2 g
KIDNEY_L [3]: 1.2 g
KIDNEY_R [3]: 1.2 g
KIDNEY_TOTAL [3]: 2.5 g
KIDNEY_L [4]: 1.3 g
KIDNEY_R [4]: 1.3 g
KIDNEY_TOTAL [4]: 2.7 g
LIVER [2]: 11.7 g
LIVER [3]: 13.4 g
LIVER [4]: 15 g
A/G [2]: 1.6
ALP [2]: 743.8 IU/L
ALT [2]: 35.2 IU/L
AST [2]: 61.6 IU/L
BUN [2]: 15.6 mg/dL
CRE [2]: 0.4 mg/dL
Ca [2]: 10.7 mg/dL
Cl [2]: 103.4 meq/L
DBIL [2]: 0.09 mg/dL
GLC [2]: 214.8 mg/dL
IP [2]: 6.8 mg/dL
K [2]: 3.7 meq/L
LDH [2]: 167.2 IU/L
Na [2]: 141 meq/L
PL [2]: 140.4 mg/dL
RALB [2]: 3.6 g/dL
TBIL [2]: 0.2 mg/dL
TC [2]: 72.6 mg/dL
TG [2]: 82.6 mg/dL
TP [2]: 5.8 g/dL
gamma-GTP [2]: 1.2 IU/L
A/G [3]: 1.5
ALP [3]: 842.2 IU/L
ALT [3]: 35 IU/L
AST [3]: 61.8 IU/L
BUN [3]: 14.4 mg/dL
CRE [3]: 0.4 mg/dL
Ca [3]: 10.6 mg/dL
Cl [3]: 103.2 meq/L
DBIL [3]: 0.096 mg/dL
GLC [3]: 202.2 mg/dL
IP [3]: 6.8 mg/dL
K [3]: 3.8 meq/L
LDH [3]: 150 IU/L
Na [3]: 141.2 meq/L
PL [3]: 133.4 mg/dL
RALB [3]: 3.5 g/dL
TBIL [3]: 0.2 mg/dL
TC [3]: 67 mg/dL
TG [3]: 100.4 mg/dL
TP [3]: 5.8 g/dL
gamma-GTP [3]: 0.8 IU/L
A/G [4]: 1.4
ALP [4]: 578 IU/L
ALT [4]: 32 IU/L
AST [4]: 50 IU/L
BUN [4]: 15.8 mg/dL
CRE [4]: 0.5 mg/dL
Ca [4]: 10.3 mg/dL
Cl [4]: 104.6 meq/L
DBIL [4]: 0.072 mg/dL
GLC [4]: 226.2 mg/dL
IP [4]: 7 mg/dL
K [4]: 3.8 meq/L
LDH [4]: 121.6 IU/L
Na [4]: 140.8 meq/L
PL [4]: 130.2 mg/dL
RALB [4]: 3.5 g/dL
TBIL [4]: 0.1 mg/dL
TC [4]: 70.4 mg/dL
TG [4]: 60.8 mg/dL
TP [4]: 6 g/dL
gamma-GTP [4]: 0.8 IU/L
TERMINAL_BW [5]: 223.1 g
APTT [5]: 18.7 s
Bas [5]: 0%
Eos [5]: 1%
Fbg [5]: 224.2 mg/dL
Hb [5]: 14 g/dL
Ht [5]: 41.8%
Lym [5]: 75.2%
MCH [5]: 21.6 pg
MCHC [5]: 33.6%
MCV [5]: 64.4 fL
Mono [5]: 3.2%
Neu [5]: 19.4%
PT [5]: 12.3 s
Plat [5]: 119.4 x10_4/uL
RBC [5]: 649.4 x10_4/ul
Ret [5]: 5.7%
WBC [5]: 84.8 x10_2/uL
KIDNEY_L [5]: 1 g
KIDNEY_R [5]: 1 g
KIDNEY_TOTAL [5]: 1.9 g
LIVER [5]: 11.2 g
A/G [5]: 1.8
ALP [5]: 847 IU/L
ALT [5]: 40 IU/L
AST [5]: 66.8 IU/L
BUN [5]: 14.4 mg/dL
CRE [5]: 0.4 mg/dL
Ca [5]: 10.9 mg/dL
Cl [5]: 104.2 meq/L
DBIL [5]: 0.1 mg/dL
GLC [5]: 216.8 mg/dL
IP [5]: 7.1 mg/dL
K [5]: 3.9 meq/L
LDH [5]: 177.6 IU/L
Na [5]: 140.8 meq/L
PL [5]: 157.4 mg/dL
RALB [5]: 3.6 g/dL
TBIL [5]: 0.2 mg/dL
TC [5]: 86.6 mg/dL
TG [5]: 86.2 mg/dL
TP [5]: 5.6 g/dL
gamma-GTP [5]: 1.2 IU/L
TERMINAL_BW [6]: 248.2 g
TERMINAL_BW [7]: 294.4 g
TERMINAL_BW [8]: 340.6 g
APTT [6]: 19.1 s
Bas [6]: 0%
Eos [6]: 1%
Fbg [6]: 217.8 mg/dL
Hb [6]: 13.6 g/dL
Ht [6]: 40.3%
Lym [6]: 84.6%
MCH [6]: 20.8 pg
MCHC [6]: 33.7%
MCV [6]: 61.6 fL
Mono [6]: 2%
Neu [6]: 12.2%
PT [6]: 12.3 s
Plat [6]: 124.4 x10_4/uL
RBC [6]: 654.8 x10_4/ul
Ret [6]: 4.6%
WBC [6]: 149.8 x10_2/uL
APTT [7]: 20.6 s
Bas [7]: 0%
Eos [7]: 0.6%
Fbg [7]: 228.4 mg/dL
Hb [7]: 14.3 g/dL
Ht [7]: 41.8%
Lym [7]: 82.4%
MCH [7]: 20.9 pg
MCHC [7]: 34.2%
MCV [7]: 61.1 fL
Mono [7]: 2.4%
Neu [7]: 13.4%
PT [7]: 12.3 s
Plat [7]: 104.8 x10_4/uL
RBC [7]: 684.6 x10_4/ul
Ret [7]: 3.8%
WBC [7]: 112.5 x10_2/uL
APTT [8]: 19.6 s
Bas [8]: 0%
Eos [8]: 1.2%
Fbg [8]: 229.2 mg/dL
Hb [8]: 15.1 g/dL
Ht [8]: 42.7%
Lym [8]: 82%
MCH [8]: 20 pg
MCHC [8]: 35.4%
MCV [8]: 56.4 fL
Mono [8]: 2.2%
Neu [8]: 13.6%
PT [8]: 12.4 s
Plat [8]: 106.7 x10_4/uL
RBC [8]: 758.8 x10_4/ul
Ret [8]: 2.1%
WBC [8]: 99.2 x10_2/uL
KIDNEY_L [6]: 1.1 g
KIDNEY_R [6]: 1.1 g
KIDNEY_TOTAL [6]: 2.1 g
KIDNEY_L [7]: 1.2 g
KIDNEY_R [7]: 1.2 g
KIDNEY_TOTAL [7]: 2.3 g
KIDNEY_L [8]: 1.3 g
KIDNEY_R [8]: 1.2 g
KIDNEY_TOTAL [8]: 2.5 g
LIVER [6]: 12.1 g
LIVER [7]: 13.5 g
LIVER [8]: 13.8 g
A/G [6]: 1.5
ALP [6]: 979.6 IU/L
ALT [6]: 37.6 IU/L
AST [6]: 62.6 IU/L
BUN [6]: 15.8 mg/dL
CRE [6]: 0.5 mg/dL
Ca [6]: 10.7 mg/dL
Cl [6]: 104.2 meq/L
DBIL [6]: 0.088 mg/dL
GLC [6]: 214.2 mg/dL
IP [6]: 7.4 mg/dL
K [6]: 4.1 meq/L
LDH [6]: 195.6 IU/L
Na [6]: 140.6 meq/L
PL [6]: 145 mg/dL
RALB [6]: 3.5 g/dL
TBIL [6]: 0.1 mg/dL
TC [6]: 74.2 mg/dL
TG [6]: 83.2 mg/dL
TP [6]: 5.8 g/dL
gamma-GTP [6]: 1.2 IU/L
A/G [7]: 1.5
ALP [7]: 728 IU/L
ALT [7]: 33.4 IU/L
AST [7]: 57.2 IU/L
BUN [7]: 12.8 mg/dL
CRE [7]: 0.5 mg/dL
Ca [7]: 10.7 mg/dL
Cl [7]: 104 meq/L
DBIL [7]: 0.09 mg/dL
GLC [7]: 200.4 mg/dL
IP [7]: 6.3 mg/dL
K [7]: 3.9 meq/L
LDH [7]: 137.8 IU/L
Na [7]: 141.2 meq/L
PL [7]: 149 mg/dL
RALB [7]: 3.4 g/dL
TBIL [7]: 0.1 mg/dL
TC [7]: 77.6 mg/dL
TG [7]: 96.4 mg/dL
TP [7]: 5.7 g/dL
gamma-GTP [7]: 0.6 IU/L
A/G [8]: 1.4
ALP [8]: 460.2 IU/L
ALT [8]: 34 IU/L
AST [8]: 54.4 IU/L
BUN [8]: 16.8 mg/dL
CRE [8]: 0.5 mg/dL
Ca [8]: 10.3 mg/dL
Cl [8]: 103.6 meq/L
DBIL [8]: 0.07 mg/dL
GLC [8]: 226.2 mg/dL
IP [8]: 6.1 mg/dL
K [8]: 3.4 meq/L
LDH [8]: 126.8 IU/L
Na [8]: 141.4 meq/L
PL [8]: 147 mg/dL
RALB [8]: 3.6 g/dL
TBIL [8]: 0.1 mg/dL
TC [8]: 83.4 mg/dL
TG [8]: 51.2 mg/dL
TP [8]: 6.2 g/dL
gamma-GTP [8]: 0.4 IU/L
